From PMC7824341, “Phenylhydrazone and Quinazoline Derivatives from the Cold-Seep-Derived Fungus Penicillium oxalicum” (Marine Drugs, 2020) come the findings set out here.

Data set [1] has as its system Vibrio anguillarum. The data set can be described thus: Antibacterial disk diffusion method. It counts as cell-based. The conditions noted are these: at 20 μg/disk; for zone of inhibition at 20 µg/disc: Vibrio anguillarum, read-out: Inhibitory Zone Diameter V. anguillarum. The protocol: (§1) Mariculture is often threatened by harmful algal blooms and pathogenic bacteria. Compounds 1–5 and dankasterone A were assayed for inhibition of the three microalgae Chattonella marina, Heterosigma akashiwo, and Prorocentrum donghaiense, and the results are shown in Table 4. […] In addition, their inhibition against four marine-derived bacterial pathogens including Vibrio anguillarum, Vibrio harveyi, Vibrio parahaemolyticus, and Vibrio splendidus was detected using the disk diffusion method. […] The MIC values of active molecules were also measured, but only those of 4 and 5 (8 μg/mL) appeared lower than 10 μg/mL. […] In view of the above inhibitory effects of 1, 4, 5, and dankasterone A on the microalgal and bacterial species, their toxicities to the marine zooplankton Artemia salina were also tested.
Background: In agar diffusion tests the substance spreads into inoculated agar from a disc or well.

Data set [2] relates to Vibrio splendidus. The experiment in a line: Antibacterial disk diffusion method. It counts as cell-based. The conditions noted are these: at 20 μg/disk; for zone of inhibition at 20 µg/disc: Vibrio splendidus, read-out: Inhibitory Zone Diameter V. splendidus. As for the experimental part: as §1
Data set [3] relates to Vibrio parahaemolyticus. The experiment in a line: Antibacterial disk diffusion method. The settings on record: at 20 μg/disk, read-out: Inhibitory Zone Diameter V. parahaemolyticus. In kind it is cell-based. As for the experimental part: as §1
In data set [4] the test system is Vibrio harveyi. The data set can be described thus: Antibacterial disk diffusion method. It counts as cell-based. The conditions noted are these: at 20 μg/disk, read-out: Inhibitory Zone Diameter V. harveyi. As for the experimental part:
as §1

For data set [5], the system named is Chattonella marina. The data set can be described thus: Inhibition of marine microalgae. It counts as cell-based. The settings on record: microalga Chattonella marina; for IC50: Chattonella marina, read-out: IC50 C. marina. The protocol:
as §1

Data set [6] concerns Prorocentrum donghaiense. The experiment in a line: Inhibition of marine microalgae. It counts as cell-based. The conditions noted are these: microalga Prorocentrum donghaiense; for IC50: Prorocentrum donghaiense, read-out: IC50 P. donghaiense. As for the experimental part:
as §1

Data set [7] has as its system Heterosigma akashiwo. The experiment in a line: Inhibition of marine microalgae. The conditions noted are these: microalga Heterosigma akashiwo; for IC50: Heterosigma akashiwo, read-out: IC50 H. akashiwo. It counts as cell-based. As for the experimental part:
as §1

A short description of data set [8]: in vivo. The conditions noted are these: in vivo; marine zooplankton Artemia salina. As for the experimental part:
as §1

The subject of data set [9] is V. harveyi and V. parahaemolyticus. The data set can be described thus: MIC of active molecules against marine-derived bacterial pathogens. In kind it is cell-based, Vibrio harveyi, Vibrio parahaemolyticus. The conditions noted are these: bacterial strain not given, active molecules were those inhibiting V. harveyi and V. parahaemolyticus. As for the experimental part:
as §1

The test system of data set [10] is Artemia salina. The experiment in a line: in vivo. The conditions noted are these: marine zooplankton Artemia salina. The protocol:
as §1

Converted amounts (≈) assume the structure as drawn. Where two headings read alike, the source gives them in different places.

The term IC50 denotes the concentration needed to halve the response being measured. The term LC50 denotes the concentration lethal to half of the exposed cells or organisms. A high value points to lower toxicity. As for `CC(C)C(C)C=CC(C)C1CCC(=O)C23CC(=O)C4=CC(=NNc5ccccc5C(=O)O)CCC4(C)C2CCC13C` (stereo not shown) [Compound 1, Penoxahydrazone A], the zone of inhibition at 20 µg/disc in data set [1] is 0 mm; in data set [2], 0 mm; in data set [3] it was more than 10 mm; in [4] it was more than 10 mm. Moreover, the values for the IC50 in [5], in data set [6] and in data set [7] were 1.2 mg/L (≈ 2.15 µM), 0.68 mg/L (≈ 1.22 µM) and 3.7 mg/L (≈ 6.62 µM), respectively. The compound further gave an LC50 in [8] of 58 mg/L (≈ 104 µM).
The term MIC denotes the smallest concentration in the dilution series that meets the test's criterion for growth inhibition. Regarding `COC(=O)C(Cc1ccc(O)cc1)n1cnc2ccccc2c1=O` (stereo not shown) [Compound 4, Penoxazolone A], in [9] (read-out: MIC), the MIC turned out to be 8 mg/L. For the same compound, the “Inhibitory Zone Diameter V. anguillarum” value in data set [1] is 7.0 mm. Also, the zone of inhibition at 20 µg/disc in data set [2] was 7.3 mm; in data set [3], more than 10 mm; in [4], more than 10 mm. Also, the “IC50 C. marina” value in [5] was determined as 2.8 mg/L (≈ 8.63 µM). Besides, in [6], the “IC50 P. donghaiense” value was determined as 0.57 mg/L (≈ 1.76 µM). The IC50 in [7] was 8.1 mg/L (≈ 25 µM). In [8], this compound came in with a median lethal concentration (LC50) of more than 100 mg/L.
Turning to `COC(=O)C(Cc1ccc(O)cc1)n1cnc2ccccc2c1=O` (stereo not shown) [Compound 5, Penoxazolone B], the MIC in [9] was found to be 8 mg/L. Moreover, the “Inhibitory Zone Diameter V. anguillarum” value in [1] is recorded as 0 mm. For the same compound, the “Inhibitory Zone Diameter V. splendidus” value in data set [2] is recorded as 7.0 mm. In [5], the “IC50 C. marina” value was 9.1 mg/L (≈ 28.1 µM). The “IC50 P. donghaiense” value in [6] was determined as 1.2 mg/L (≈ 3.7 µM). Also, the “IC50 H. akashiwo” value in data set [7] is 9.0 mg/L (≈ 27.7 µM). Further, the “LC50 A. salina” value in data set [10] is more than 100 mg/L.
Turning to `[K+].[K+].[O]=[Cr](=[O])([O-])[O][Cr](=[O])(=[O])[O-]` [Compound K2Cr2O7, K2Cr2O7, reference compound], the “IC50 C. marina” value in [5] was 0.60 mg/L. Besides, in [6], the “IC50 P. donghaiense” value turned out to be 1.2 mg/L. Moreover, in data set [7], the “IC50 H. akashiwo” value is 2.4 mg/L. Moreover, the “LC50 A. salina” value in data set [10] was determined as 18 mg/L.
On to `O=C(N[C@H](CO)[C@H](O)c1ccc([N+](=O)[O-])cc1)C(Cl)Cl` [chloramphenicol, reference compound], for which the zone of inhibition at 20 µg/disc is 18 mm in data set [1], 23 mm in data set [2], 28 mm in data set [3] and 29 mm in data set [4].
`CC(C)[C@@H](C)/C=C/[C@@H](C)[C@H]1CCC(=O)[C@]23CC(=O)C4=CC(=O)CC[C@]4(C)[C@H]2CC[C@]13C` [dankasterone A]: the zone of inhibition at 20 µg/disc in data set [1] is 7 mm; in data set [2], 0 mm; in [3], more than 10 mm; in data set [4] it was more than 10 mm. The figures for the IC50 in data set [5], in data set [6] and in data set [7] were 1.9 mg/L (≈ 4.47 µM), 1 mg/L (≈ 2.36 µM) and 4.6 mg/L (≈ 10.8 µM), respectively. This compound also registered an LC50 in data set [8] of 43 mg/L (≈ 101 µM).
